From US8258169B2, “Pyrazole-4-N-alkoxycarboxamides as microbiocides” (Syngenta Crop Protection, LLC, priority 2008, dated 2012)

Row | Structure (SMILES) | melting point [°C]
1 | CON(CCCc1c(Cl)cc(Cl)cc1Cl)C(=O)c1cn(C)nc1C(F)F [Compound 2.040, 3-difluoromethyl-1-methyl-1H-pyrazole-4-carboxylic acid methoxy-[3-(2,4,6-trichloro-phenyl)-propyl]-amide] | 95 to 96
2 | CCON(C(=O)c1cn(C)nc1C(F)F)C(C)Cc1c(Cl)cc(Cl)cc1Cl (centres unmarked) [Compound 1.032, 3-difluoromethyl-1-methyl-1H-pyrazole-4-carboxylic acid ethoxy-[1-methyl-2-(2,4,6-trichlorophenyl)-ethyl]-amide] | 111 to 114
